The source of these data is ChEMBL document CHEMBL1129022, “Synthesis and antibacterial activity of new tropone-substituted phenyloxazolidinone antibacterial agents 2. Modification of the phenyl ring the potentiating effect of fluorine substitution on in vivo activity” (1996).

What all share (type): functional
The test system of assay [1] is Staphylococcus epidermidis. The experiment in a line: Compound was tested in vitro for antibacterial activity against methicillin-resistant Staphylococcus epidermidis UC 12084.
In the next assay the test system is Streptococcus pneumoniae. As to the kind of experiment: Compound was tested in vitro for antibacterial activity against Streptococcus pneumoniae UC 9912.
The subject of the next assay is Mus musculus. The experiment in a line: Amount of drug required (mg/kg body weight/dose) to cure 50% of infected mice subjected to a lethal systemic infection with Staphylococcus aureus UC 9213.
In another assay the test system is Enterococcus faecalis. The experiment in a line: Compound was tested in vitro for antibacterial activity against Enterococcus faecalis UC 9217.
Assay [2] concerns Escherichia coli. The experiment in a line: Compound was tested in vitro for antibacterial activity against Escherichia coli extracts, using cell free prokaryotic transcription coupled translation (T/T) assay at 2 ug/mL.
For assay [3], the system named is Staphylococcus aureus. The experiment in a line: Compound was tested in vitro for antibacterial activity against methicillin-susceptible Staphylococcus aureus UC 9213.
Assay [4] concerns Staphylococcus aureus. As to the kind of experiment: Compound was tested in vitro for antibacterial activity against methicillin-resistant Staphylococcus aureus UC 6685.
The subject of the next assay is Bacteroides fragilis. The experiment in a line: Compound was tested in vitro for antibacterial activity against Bacteroides fragilis UC 12199.
Assay [5] relates to Escherichia coli. As to the kind of experiment: Compound was tested in vitro for antibacterial activity against Escherichia coli extracts, using cell free prokaryotic transcription coupled translation (T/T) assay. The settings on record: dose or concentration not given here.
Assay [6] concerns Mycobacterium tuberculosis. As to the kind of experiment: Compound was tested in vitro for antibacterial activity against Mycobacterium tuberculosis H37Rv.

Structures are written as SMILES. In brackets after ≈: the same amount, converted by molar mass. Bounds are passed on as bounds.

Consider `COc1ccc(-c2ccc(N3CC(CNC(C)=O)OC3=O)cc2)ccc1=O` (centres undefined), for which the MIC in assay [1] came out at 0.5 µg/mL (≈ 1.36 µM); in the assay with Streptococcus pneumoniae it was 0.25 µg/mL (≈ 0.679 µM); with Enterococcus faecalis it was 1 µg/mL (≈ 2.71 µM); in the assay on Staphylococcus aureus [3], 2 µg/mL (≈ 5.43 µM). The molecule also returned an ED50 with Mus musculus of 12.2 mg/kg. Besides, the inhibition with Escherichia coli [2] was determined as 89%.

On to `CN[C@H](CC(C)C)C(=O)N[C@H]1C(=O)N[C@@H](CC(N)=O)C(=O)N[C@H]2C(=O)N[C@H]3C(=O)N[C@H](C(=O)N[C@H](C(=O)O)c4cc(O)cc(O)c4-c4cc3ccc4O)[C@H](O)c3ccc(c(Cl)c3)Oc3cc2cc(c3O[C@@H]2O[C@H](CO)[C@@H](O)[C@H](O)[C@H]2O[C@H]2C[C@](C)(N)[C@H](O)[C@H](C)O2)Oc2ccc(cc2Cl)[C@H]1O` [VANCOMYCIN], for which 0.5 µg/mL (≈ 0.345 µM) was the least that counted as inhibitory against Streptococcus pneumoniae (MIC). This molecule also showed an ED50 in the assay with Mus musculus of 2.2 mg/kg.

For the molecule `C/N=c1\ccc(-c2ccc(N3C[C@H](CNC(C)=O)OC3=O)cc2F)ccc1O`, the MIC in assay [1] is 0.125 µg/mL (≈ 0.324 µM); with Streptococcus pneumoniae, 0.125 µg/mL (≈ 0.324 µM); in the assay on Staphylococcus aureus [4], 0.25 µg/mL (≈ 0.649 µM); with Enterococcus faecalis, 0.25 µg/mL (≈ 0.649 µM); against Bacteroides fragilis, 2 µg/mL (≈ 5.19 µM); in the assay on Staphylococcus aureus [3] it was 0.5 µg/mL (≈ 1.3 µM).

For the molecule `COc1ccc(-c2c(F)cc(N3C[C@H](CNC(C)=O)OC3=O)cc2F)ccc1=O`, the MIC was determined as 0.5 µg/mL (≈ 1.24 µM) in assay [1]; 0.25 µg/mL (≈ 0.618 µM) against Streptococcus pneumoniae; 0.5 µg/mL (≈ 1.24 µM) in the assay with Staphylococcus aureus [4]; 1 µg/mL (≈ 2.47 µM) against Enterococcus faecalis; 8 µg/mL (≈ 19.8 µM) in the assay with Bacteroides fragilis; 1 µg/mL (≈ 2.47 µM) against Staphylococcus aureus [3]. For the same molecule, in the assay on Mus musculus, the ED50 stood at 2.3 mg/kg.

For the molecule `C#CCNc1ccc(-c2ccc(N3C[C@H](CNC(C)=O)OC3=O)cc2F)ccc1=O`, the MIC turned out to be 0.25 µg/mL (≈ 0.611 µM) in assay [1]; 0.125 µg/mL (≈ 0.305 µM) against Streptococcus pneumoniae; 0.5 µg/mL (≈ 1.22 µM) in the assay with Staphylococcus aureus [4]; 0.5 µg/mL (≈ 1.22 µM) against Enterococcus faecalis; 2 µg/mL (≈ 4.88 µM) in the assay on Bacteroides fragilis; 1 µg/mL (≈ 2.44 µM) against Staphylococcus aureus [3]. This molecule also had an ED50 in the assay with Mus musculus of 1.3 mg/kg.

For `COc1ccc(-c2ccc(N3CC(CNC(C)=O)OC3=O)cc2F)ccc1=O` (centres undefined), the MIC came out at 0.5 µg/mL (≈ 1.29 µM) in assay [1], 0.25 µg/mL (≈ 0.647 µM) in the assay with Streptococcus pneumoniae, 1 µg/mL (≈ 2.59 µM) against Enterococcus faecalis and 1 µg/mL (≈ 2.59 µM) against Staphylococcus aureus [3]. Further, it took a dose of 7.7 mg/kg to reach the 50% effect level in the assay on Mus musculus (ED50).

Turning to `COc1ccc(-c2ccc(N3CC(CNC(C)=O)OC3=O)cc2Cl)ccc1=O` (centres undefined), the MIC in assay [1] is 1 µg/mL (≈ 2.48 µM); with Streptococcus pneumoniae, 1 µg/mL (≈ 2.48 µM); in the assay with Enterococcus faecalis, 2 µg/mL (≈ 4.96 µM); against Staphylococcus aureus [3], 4 µg/mL (≈ 9.93 µM). Moreover, the ED50 in the assay on Mus musculus is > 20 mg/kg. This molecule also came in with an inhibition in the assay on Escherichia coli [2] of 71%.

Turning to `COc1ccc(-c2ccc(N3CC(CNC(C)=O)OC3=O)cc2C(F)(F)F)ccc1=O` (centres undefined), the MIC in assay [1] worked out at 4 µg/mL (≈ 9.17 µM); in the assay with Streptococcus pneumoniae it was 4 µg/mL (≈ 9.17 µM); with Enterococcus faecalis, 16 µg/mL (≈ 36.7 µM); against Staphylococcus aureus [3], 32 µg/mL (≈ 73.3 µM). The ED50 in the assay with Mus musculus is > 20 mg/kg. This molecule displayed an inhibition in the assay with Escherichia coli [2] of 58%.

For the molecule `COc1ccc(-c2c(F)cc(N3CC(CNC(C)=O)OC3=O)cc2F)ccc1=O` (centres undefined), the MIC in assay [1] came to 0.5 µg/mL (≈ 1.24 µM); in the assay with Streptococcus pneumoniae, 0.5 µg/mL (≈ 1.24 µM); with Enterococcus faecalis it was 1 µg/mL (≈ 2.47 µM); in the assay on Staphylococcus aureus [3], 2 µg/mL (≈ 4.95 µM). In the assay on Mus musculus, this molecule registered an ED50 of 3.7 mg/kg. This molecule returned an inhibition in the assay on Escherichia coli [5] of 85%.

As to `COc1ccc(-c2ccc(N3C[C@H](CNC(C)=O)OC3=O)cc2F)ccc1=O`, the MIC in [1] was 0.25 µg/mL (≈ 0.647 µM); with Streptococcus pneumoniae, 0.125 µg/mL (≈ 0.324 µM); in the assay on Staphylococcus aureus [4], 0.5 µg/mL (≈ 1.29 µM); in the assay with Enterococcus faecalis it was 0.5 µg/mL (≈ 1.29 µM); in assay [6], < 1 µg/mL; against Bacteroides fragilis, 8 µg/mL (≈ 20.7 µM). In the assay on Staphylococcus aureus [3], 1 µg/mL (≈ 2.59 µM) was the least that counted as inhibitory (MIC). In addition, the ED50 in the assay on Mus musculus came to 4.1 mg/kg.

One may read the MIC as the lowest concentration that inhibits growth of the organism. Read a high MIC as a need for much substance. The ED50 is the midpoint of the dose-response relation. Read a low ED50 as greater potency. The term inhibition denotes the drop in the measured response relative to a control, in per cent. Low values mean a weak effect, high ones a strong effect.
